Numbered stars: 1 amine (or outer) side, 2 acyl side, 3 side chain; on linkers, the order of the positions; unused ones are H or OH. Bridge positions count the residues as written; N and C are the ends. Square brackets hold non-standard residues; d marks the D form. Peptide text beside a SMILES is read from it. * marks the point of attachment. ξ: configuration not given here. Pro(4S-NHCO(5-Cl-2-thienyl)) = O=C(N[C@@H]1CN[C@H](C(=O)O)C1)c1ccc(Cl)s1; ξPro(4-NHCO(5-Cl-2-thienyl)) = O=C(NC1CNC(C(=O)O)C1)c1ccc(Cl)s1; ξPro(4ξ-NHCOC6H4-4-Cl) = O=C(NC1CNC(C(=O)O)C1)c1ccc(Cl)cc1; 2Thenoyl(5-Cl) = O=C(c1ccc(Cl)s1)*; Benzoyl(4-Cl) = O=C(c1ccc(Cl)cc1)*; Cysteamide = C(CS[*:3])N[*:1]; X1 = O=C(/C=C/c1ccccc1)*; Api = NC1(C(=O)O)CCNCC1; Dap = NC[C@H](N)C(=O)O; X2 = O=C(C=Cc1ccccc1)*; Mpa = O=C(O)CCS
Target: MDM2 (Homo sapiens, UniProt Q00987)
Assay: MDM2 binding screen: displacement of fluorescent p53 peptide probe FP53 (fluorescence polarization)
Conditions: crude macrocycle reactions; for fraction fluorescent probe displaced, Screen: initial screen
How it was run: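 Single-point screen: one fluorescence anisotropy reading at 25 °C (485 nm excitation, 535 nm emission) per macrocycle. Crude macrocycle reactions, final 10 µM, were scored for displacing the fluorescent p53 peptide from human MDM2.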

Sequence of MDM2 (Q00987 whole entry): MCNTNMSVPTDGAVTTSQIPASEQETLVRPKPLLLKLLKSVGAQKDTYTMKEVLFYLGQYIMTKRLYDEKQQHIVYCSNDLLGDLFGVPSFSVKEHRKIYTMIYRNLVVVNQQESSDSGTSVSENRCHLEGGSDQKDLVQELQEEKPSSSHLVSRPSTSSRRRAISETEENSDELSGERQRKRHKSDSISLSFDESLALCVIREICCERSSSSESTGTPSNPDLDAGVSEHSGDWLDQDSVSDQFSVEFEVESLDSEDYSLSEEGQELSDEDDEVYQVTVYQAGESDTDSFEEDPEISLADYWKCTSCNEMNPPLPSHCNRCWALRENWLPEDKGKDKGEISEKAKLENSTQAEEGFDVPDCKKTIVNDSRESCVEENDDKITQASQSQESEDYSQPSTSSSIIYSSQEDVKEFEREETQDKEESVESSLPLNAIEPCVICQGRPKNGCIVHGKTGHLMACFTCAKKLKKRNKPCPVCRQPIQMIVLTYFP

| fraction fluorescent probe displaced, Screen (Acid 91) | fraction fluorescent probe displaced, Replicate (Acid 91) | fraction fluorescent probe displaced, Screen (Acid 14) | fraction fluorescent probe displaced, Replicate (Acid 14) | Compound | further results |
| --- | --- | --- | --- | --- | --- |
| -0.08 | -0.00827 |  |  | O=C1CCSSCCNC(=O)C2(CCN(C(=O)/C=C/c3ccccc3)CC2)NC(=O)c2cccc(c2)CNC(=O)[C@H](Cc2ccccc2)N1 [X F B5 D6 Acid 91] |  |
| -0.10 | -0.0333 |  |  | O=C1CCSSCCNC(=O)C2CN(C(=O)C=Cc3ccccc3)CCN2C(=O)c2cccc(c2)CNC(=O)C(Cc2ccccc2)N1 (stereo not shown) [X F B5 D7 Acid 91] |  |
|  |  | 0.08 | 0.10 | O=C1CCSSCCNC(=O)[C@@H]2CCCN2C(=O)[C@H](CNC(=O)c2ccc(Cl)s2)NC(=O)[C@H](Cc2ccccc2)N1 [X F D3 B1 Acid 14] ([Mpa]F[Dap](2Thenoyl(5-Cl))P-Cysteamide; disulfide 1-C) |  |
|  |  |  |  | O=C1CCSSCCNC(=O)[C@@H]2CCCN2C(=O)[C@H](CNC(=O)c2ccc(Cl)cc2)NC(=O)[C@H](Cc2ccccc2)N1 [X F D3 B1 Acid 25] ([Mpa]F[Dap](Benzoyl(4-Cl))P-Cysteamide; disulfide 1-C) | fraction fluorescent probe displaced, Screen (Acid 25): 0.0569; fraction fluorescent probe displaced, Replicate (Acid 25): 0.15 |
| -0.0241 | -0.00827 |  |  | O=C(/C=C/c1ccccc1)NC[C@@H]1NC(=O)[C@H](Cc2ccccc2)NC(=O)CCSSCCNC(=O)[C@@H]2CCCN2C1=O [X F D3 B1 Acid 91] ([Mpa]F[Dap](X1)P-Cysteamide; disulfide 1-C) |  |
|  |  | 0.053 | 0.0465 | O=C1CCNC(=O)C(CNC(=O)c2ccc(Cl)s2)NC(=O)C(Cc2ccccc2)NC(=O)CCSSCCN1 (stereo not shown) [X F D3 B2 Acid 14] |  |
|  |  |  |  | O=C1CCNC(=O)[C@H](CNC(=O)c2ccc(Cl)cc2)NC(=O)[C@H](Cc2ccccc2)NC(=O)CCSSCCN1 [X F D3 B2 Acid 25] | fraction fluorescent probe displaced, Screen (Acid 25): 0.19; fraction fluorescent probe displaced, Replicate (Acid 25): 0.0211 |
|  |  | 0.053 | 0.10 | O=C1CCSSCCNC(=O)[C@H]2CCCN(C2)C(=O)[C@H](CNC(=O)c2ccc(Cl)s2)NC(=O)[C@H](Cc2ccccc2)N1 [X F D3 B4 Acid 14] |  |
|  |  |  |  | O=C1CCSSCCNC(=O)[C@H]2CCCN(C2)C(=O)[C@H](CNC(=O)c2ccc(Cl)cc2)NC(=O)[C@H](Cc2ccccc2)N1 [X F D3 B4 Acid 25] | fraction fluorescent probe displaced, Screen (Acid 25): 0.12; fraction fluorescent probe displaced, Replicate (Acid 25): 0.10 |
| 0.11 | -0.0333 |  |  | O=C(/C=C/c1ccccc1)NC[C@@H]1NC(=O)[C@H](Cc2ccccc2)NC(=O)CCSSCCNC(=O)[C@H]2CCCN(C2)C1=O [X F D3 B4 Acid 91] |  |
|  |  | 0.0241 | -0.03 | O=C1CCSSCCNC(=O)c2cccc(c2)CNC(=O)[C@H](CNC(=O)c2ccc(Cl)s2)NC(=O)[C@H](Cc2ccccc2)N1 [X F D3 B5 Acid 14] |  |
|  |  |  |  | O=C1CCSSCCNC(=O)c2cccc(c2)CNC(=O)[C@H](CNC(=O)c2ccc(Cl)cc2)NC(=O)[C@H](Cc2ccccc2)N1 [X F D3 B5 Acid 25] | fraction fluorescent probe displaced, Screen (Acid 25): 0.0569; fraction fluorescent probe displaced, Replicate (Acid 25): 0.07 |
|  |  | 0.14 | 0.0465 | O=C1CCSSCCNC(=O)[C@@H]2CCCN2C(=O)[C@@H]2C[C@H](NC(=O)c3ccc(Cl)s3)CN2C(=O)[C@H](Cc2ccccc2)N1 [X F D5 B1 Acid 14] ([Mpa]F[Pro(4S-NHCO(5-Cl-2-thienyl))]P-Cysteamide; disulfide 1-C) |  |
| -0.05 | -0.11 |  |  | O=C(C=Cc1ccccc1)NC1CC2C(=O)N3CCCC3C(=O)NCCSSCCC(=O)NC(Cc3ccccc3)C(=O)N2C1 (stereo not shown) [X F D5 B1 Acid 91] |  |
| 0.08 | 0.0168 |  |  | O=C(C=Cc1ccccc1)NC1CC2C(=O)NCCC(=O)NCCSSCCC(=O)NC(Cc3ccccc3)C(=O)N2C1 (stereo not shown) [X F D5 B2 Acid 91] |  |
|  |  | -0.00483 | 0.0211 | O=C1CCSSCCNC(=O)C2CCCN(C2)C(=O)C2CC(NC(=O)c3ccc(Cl)s3)CN2C(=O)C(Cc2ccccc2)N1 (stereo not shown) [X F D5 B4 Acid 14] |  |
|  |  | -0.00483 | -0.00432 | O=C1CCSSCCNC(=O)c2cccc(c2)CNC(=O)C2CC(NC(=O)c3ccc(Cl)s3)CN2C(=O)C(Cc2ccccc2)N1 (stereo not shown) [X F D5 B5 Acid 14] |  |
| -0.05 | -0.0333 |  |  | O=C(C=Cc1ccccc1)NC1CC2C(=O)NCc3cccc(c3)C(=O)NCCSSCCC(=O)NC(Cc3ccccc3)C(=O)N2C1 (stereo not shown) [X F D5 B5 Acid 91] |  |

| fraction fluorescent probe displaced, Screen (Acid 91) | fraction fluorescent probe displaced, Replicate (Acid 91) | fraction fluorescent probe displaced, Screen (Acid 14) | fraction fluorescent probe displaced, Replicate (Acid 14) | Compound | further results |
| --- | --- | --- | --- | --- | --- |
|  |  |  |  | O=C1CCSSCCNC(=O)[C@@H]2CCCN2C(=O)C2(CCN(C(=O)c3ccc(Cl)cc3)CC2)NC(=O)[C@H](Cc2ccccc2)N1 [X F D6 B1 Acid 25] ([Mpa]F[Api](Benzoyl(4-Cl))P-Cysteamide; disulfide 1-C) | fraction fluorescent probe displaced, Screen (Acid 25): 0.0244; fraction fluorescent probe displaced, Replicate (Acid 25): 0.17 |
| -0.08 | 0.04 |  |  | O=C1CCSSCCNC(=O)C2CCCN2C(=O)C2(CCN(C(=O)C=Cc3ccccc3)CC2)NC(=O)C(Cc2ccccc2)N1 (stereo not shown) [X F D6 B1 Acid 91] ([Mpa]F[Api](X2)P-Cysteamide; disulfide 1-C; configuration not given here) |  |
|  |  | -0.00483 | 0.0465 | O=C1CCNC(=O)C2(CCN(C(=O)c3ccc(Cl)s3)CC2)NC(=O)[C@H](Cc2ccccc2)NC(=O)CCSSCCN1 [X F D6 B2 Acid 14] |  |
| 0.03 | -0.00827 |  |  | O=C1CCNC(=O)C2(CCN(C(=O)/C=C/c3ccccc3)CC2)NC(=O)[C@H](Cc2ccccc2)NC(=O)CCSSCCN1 [X F D6 B2 Acid 91] |  |
|  |  | 0.053 | 0.10 | O=C1CCSSCCNC(=O)[C@H]2CCCN(C2)C(=O)C2(CCN(C(=O)c3ccc(Cl)s3)CC2)NC(=O)[C@H](Cc2ccccc2)N1 [X F D6 B4 Acid 14] |  |
|  |  |  |  | O=C1CCSSCCNC(=O)[C@H]2CCCN(C2)C(=O)C2(CCN(C(=O)c3ccc(Cl)cc3)CC2)NC(=O)[C@H](Cc2ccccc2)N1 [X F D6 B4 Acid 25] | fraction fluorescent probe displaced, Screen (Acid 25): -0.00813; fraction fluorescent probe displaced, Replicate (Acid 25): 0.07 |
|  |  | 0.053 | 0.0211 | O=C1CCSSCCNC(=O)c2cccc(c2)CNC(=O)C2(CCN(C(=O)c3ccc(Cl)s3)CC2)NC(=O)[C@H](Cc2ccccc2)N1 [X F D6 B5 Acid 14] |  |
|  |  |  |  | O=C1CCSSCCNC(=O)c2cccc(c2)CNC(=O)C2(CCN(C(=O)c3ccc(Cl)cc3)CC2)NC(=O)C(Cc2ccccc2)N1 (stereo not shown) [X F D6 B5 Acid 25] | fraction fluorescent probe displaced, Screen (Acid 25): -0.00813; fraction fluorescent probe displaced, Replicate (Acid 25): 0.12 |
| -0.0241 | -0.0333 |  |  | O=C1CCSSCCNC(=O)c2cccc(c2)CNC(=O)C2(CCN(C(=O)/C=C/c3ccccc3)CC2)NC(=O)[C@H](Cc2ccccc2)N1 [X F D6 B5 Acid 91] |  |
|  |  |  |  | O=C1CCNC(=O)C2CN(C(=O)c3ccc(Cl)cc3)CCN2C(=O)C(Cc2ccccc2)NC(=O)CCSSCCN1 (stereo not shown) [X F D7 B2 Acid 25] | fraction fluorescent probe displaced, Screen (Acid 25): -0.07; fraction fluorescent probe displaced, Replicate (Acid 25): 0.10 |
|  |  | -0.00483 | 0.12 | O=C1CCSSCCNC(=O)C2CCCN(C2)C(=O)C2CN(C(=O)c3ccc(Cl)s3)CCN2C(=O)C(Cc2ccccc2)N1 (stereo not shown) [X F D7 B4 Acid 14] |  |
|  |  | 0.14 | 0.22 | O=C1CCSSCCNC(=O)[C@H](CNC(=O)c2ccc(Cl)s2)NC(=O)[C@@H]2CCCN2C(=O)[C@H](Cc2c[nH]c3ccccc23)N1 [X W B1 D3 Acid 14] ([Mpa]WP[Dap](2Thenoyl(5-Cl))-Cysteamide; disulfide 1-C) |  |
|  |  |  |  | O=C1CCSSCCNC(=O)[C@H](CNC(=O)c2ccc(Cl)cc2)NC(=O)[C@@H]2CCCN2C(=O)[C@H](Cc2c[nH]c3ccccc23)N1 [X W B1 D3 Acid 25] ([Mpa]WP[Dap](Benzoyl(4-Cl))-Cysteamide; disulfide 1-C) | fraction fluorescent probe displaced, Screen (Acid 25): 0.28; fraction fluorescent probe displaced, Replicate (Acid 25): 0.17 |
| 0.19 | 0.12 |  |  | O=C(/C=C/c1ccccc1)NC[C@@H]1NC(=O)[C@@H]2CCCN2C(=O)[C@H](Cc2c[nH]c3ccccc23)NC(=O)CCSSCCNC1=O [X W B1 D3 Acid 91] ([Mpa]WP[Dap](X1)-Cysteamide; disulfide 1-C) |  |
|  |  | 0.0241 | 0.17 | O=C1CCSSCCNC(=O)C2CC(NC(=O)c3ccc(Cl)s3)CN2C(=O)C2CCCN2C(=O)C(Cc2c[nH]c3ccccc23)N1 (stereo not shown) [X W B1 D5 Acid 14] ([Mpa]WP[ξPro(4-NHCO(5-Cl-2-thienyl))]-Cysteamide; disulfide 1-C; configuration not given here) |  |
|  |  |  |  | O=C1CCSSCCNC(=O)C2CC(NC(=O)c3ccc(Cl)cc3)CN2C(=O)C2CCCN2C(=O)C(Cc2c[nH]c3ccccc23)N1 (stereo not shown) [X W B1 D5 Acid 25] ([Mpa]WP[ξPro(4ξ-NHCOC6H4-4-Cl)]-Cysteamide; disulfide 1-C; configuration not given here) | fraction fluorescent probe displaced, Screen (Acid 25): 0.15; fraction fluorescent probe displaced, Replicate (Acid 25): 0.17 |
|  |  | 0.08 | -0.00432 | O=C1CCSSCCNC(=O)C2(CCN(C(=O)c3ccc(Cl)s3)CC2)NC(=O)[C@@H]2CCCN2C(=O)[C@H](Cc2c[nH]c3ccccc23)N1 [X W B1 D6 Acid 14] ([Mpa]WP[Api](2Thenoyl(5-Cl))-Cysteamide; disulfide 1-C) |  |

From article PMC9250534, “Synthesis and direct assay of large macrocycle diversities by combinatorial late-stage modification at picomole scale” (Nature Communications, 2022)
